Results published in patent publication EP2876156A1 (COMMISSARIAT A L'ENERGIE ATOMIQUE ET AUX ENERGIES …, priority 2013, dated 2015).

Assays:
Type in all cases: biochemical
ENZ1 SEQ ID N°1 = biological target: T1, ENZ1 SEQ ID N°1 (Catenulispora acidiphila, UniProt C7QJ42); assay: Substrate selectivity screening of hydroxylase (conversion by HPLC after Fmoc-Cl derivatization); conditions: enzyme 0.08 mg/mL, molar ratio α-ketoglutarate/substrate 15/10, Hepes buffer 50 mM pH 7,5, Mohr's salt 1mM, without sodium ascorbate, room temperature, three hours
T1 construct: His6 (hexahistidine, inserted after the initial methionine) (N); made in house; host or cells: E. coli BL21(DE3) plysE
T1 sequence (C7QJ42 1-358): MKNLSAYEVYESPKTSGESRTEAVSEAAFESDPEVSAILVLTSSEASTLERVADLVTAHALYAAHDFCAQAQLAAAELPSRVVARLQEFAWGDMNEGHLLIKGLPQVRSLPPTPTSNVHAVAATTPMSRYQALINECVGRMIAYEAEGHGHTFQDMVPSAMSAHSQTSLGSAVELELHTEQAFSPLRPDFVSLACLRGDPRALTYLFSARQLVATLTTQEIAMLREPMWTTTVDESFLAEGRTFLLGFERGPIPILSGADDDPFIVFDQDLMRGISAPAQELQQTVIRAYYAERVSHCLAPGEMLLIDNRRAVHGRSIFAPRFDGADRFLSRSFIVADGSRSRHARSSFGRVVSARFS
Experimental: (§1) Enzymatic reaction medium (0.2 µmole, leq.), borate buffer 0,2M pH 7.7 (80 µL) and Fmoc-Cl solution7.5 mM in acetone (100 µL, 0.75 µmole, 3.75 eq) were hand shaked in a closed 1.50 mL eppendorf for one minute. The aqueous layer was extracted with petroleum ether (3*1 mL) to eliminate excess of Fmoc-Cl. 70 µL of the aqueous phase were withdrawn, diluted with 70 µL of acetonitrile and injected into the HPLC. For substrates with two amine functions, 100 µL of Fmoc-Cl solution 15 mM were used.
(§2) Conditions for HPLC analysis: Atlantis® T3 (3 µm 4.5*150 mm) at 35°C with the gradient 50-86% eluent B (MeCN + 0.1% TFA) and eluent A (H2O + 0.1% TFA) in 20 min at 1 mL/min.
(§3) Enzymes (0.08 mg/mL) were screened against substrates (molar ratio α-ketoglutarate/substrate 15/10) in Hepes buffer 50 mM pH 7,5, with Mohr's salt at 1mM and without sodium ascorbate, at room temperature for three hours. The potential conversions of the substrates were determined by HPLC after Fmoc-Cl derivatization as section III here above.

ENZ4 SEQ ID NO:4 = biological target: T2, ENZ4 SEQ ID NO:4 (Catenulispora acidiphila, UniProt C7Q942); assay: as above; conditions: enzyme 0.08 mg/mL, molar ratio α-ketoglutarate/substrate 15/10, Hepes buffer 50 mM pH 7,5, Mohr's salt 1mM, without sodium ascorbate, room temperature, three hours
T2 construct: His6 (hexahistidine, inserted after the initial methionine) (N); made in house; host or cells: E. coli BL21(DE3) plysE
T2 sequence (C7Q942 1-343): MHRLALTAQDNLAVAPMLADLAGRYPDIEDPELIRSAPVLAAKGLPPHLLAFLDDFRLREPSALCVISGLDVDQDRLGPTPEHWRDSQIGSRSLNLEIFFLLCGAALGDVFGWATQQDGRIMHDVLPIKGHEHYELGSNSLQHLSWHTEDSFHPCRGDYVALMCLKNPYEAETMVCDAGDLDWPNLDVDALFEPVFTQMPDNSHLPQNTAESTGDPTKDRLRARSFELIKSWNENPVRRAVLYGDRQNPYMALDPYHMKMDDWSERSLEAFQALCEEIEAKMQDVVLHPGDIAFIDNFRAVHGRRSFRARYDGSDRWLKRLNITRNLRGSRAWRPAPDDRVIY
Experimental: as §1, §2, §3

ENZ5 (SEQ ID NO:9) = biological target: T3, ENZ5 (SEQ ID NO:9) (Niastella koreensis, UniProt G8T8D0); assay: Hydroxylation capability, HPLC analysis of reaction media after derivatization
T3 construct: His6 (hexahistidine, inserted after the initial methionine) (N); made in house; host or cells: E. coli BL21(DE3) plysE
T3 sequence (G8T8D0 1-371): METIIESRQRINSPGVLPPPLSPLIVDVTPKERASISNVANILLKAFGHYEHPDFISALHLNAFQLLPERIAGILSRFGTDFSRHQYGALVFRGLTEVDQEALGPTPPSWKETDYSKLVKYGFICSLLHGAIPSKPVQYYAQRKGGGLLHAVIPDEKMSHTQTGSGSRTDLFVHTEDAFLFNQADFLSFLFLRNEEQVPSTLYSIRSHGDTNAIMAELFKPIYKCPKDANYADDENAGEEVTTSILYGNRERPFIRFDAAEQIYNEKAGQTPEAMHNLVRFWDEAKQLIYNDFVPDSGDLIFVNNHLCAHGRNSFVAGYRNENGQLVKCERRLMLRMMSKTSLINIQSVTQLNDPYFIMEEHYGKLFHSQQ
Experimental: as §3
(§4) The hydroxylation capability of two other enzymes, namely ENZ6 (SEQ ID NO:10) and ENZ5 (SEQ ID NO:9) were also assessed. The amino sequence of ENZ6 has 79% of amino acid identity with SEQ ID NO:2 of ENZ2 while the amino sequence of ENZ5 has 72% of amino acid identity with SEQ ID NO:3 of ENZ3. […] As shown in part VI, ENZ6 and ENZ5 provide (4R)-hydroxy-L-lysine from L-lysine similarly to ENZ2 and ENZ3. Thus ENZ6 and ENZ5 are likely to have the same substrate selectivity and provide similar products as ENZ2 and ENZ3.

ENZ6 (SEQ ID NO:10) = biological target: T4, ENZ6 (SEQ ID NO:10) (Flavobacterium sp., UniProt J3BZS6); assay: as above
T4 construct: His6 (hexahistidine, inserted after the initial methionine) (N); made in house; host or cells: E. coli BL21(DE3) plysE
T4 sequence (J3BZS6 whole entry): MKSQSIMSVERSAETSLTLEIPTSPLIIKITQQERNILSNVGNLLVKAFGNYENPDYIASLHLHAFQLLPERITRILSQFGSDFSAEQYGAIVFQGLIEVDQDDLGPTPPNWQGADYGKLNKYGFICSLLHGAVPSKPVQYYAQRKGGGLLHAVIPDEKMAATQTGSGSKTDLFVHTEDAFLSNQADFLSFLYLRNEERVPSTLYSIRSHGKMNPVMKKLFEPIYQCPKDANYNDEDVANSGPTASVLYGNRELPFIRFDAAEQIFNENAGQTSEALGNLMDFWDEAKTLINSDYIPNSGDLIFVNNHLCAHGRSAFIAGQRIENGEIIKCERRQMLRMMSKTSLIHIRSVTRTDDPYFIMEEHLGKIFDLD
Experimental: as §3, §4

ENZ1 (SEQ ID NO:1) = biological target: T5, ENZ1 (SEQ ID NO:1) (Catenulispora acidiphila, UniProt C7QJ42); assay: Enzymatic hydroxylation of L-lysine, 10 mL scale, conversion by HPLC (protocol A); conditions: ENZ1 0.024 mg/mL, L-lysine 10 mM, α-ketoglutarate 15 mM, sodium ascorbate 2.5 mM, Fe(II) 1 mM, Hepes pH 7.50, room temperature, 18h
T5 construct: His6 (hexahistidine, inserted after the initial methionine) (N); made in house; host or cells: E. coli BL21(DE3) plysE
T5 sequence (C7QJ42 1-358): T1 sequence (C7QJ42 1-358)
Experimental: as §1, §2
Enzymatic reaction was carried out in 250 mL glass erlenmeyer flask for a total volume of 4*10 mL. Water (4.8 mL), Hepes buffer 1M pH 7.50 (0.5 mL, 50 mM), L-lysine 50 mM (2 mL, 10 mM), α-ketoglutarate 150 mM (1 mL, 15 mM), sodium ascorbate 100 mM (0.25 mL, 2.5 mM), ammonium Iron(II) sulfate hexahydrate 10 mM (1 mL, 1 mM) were poured into the erlenmeyer flask. The reaction was started by the enzyme addition (0.53 mg/mL, 0.45 mL, final concentration 0.024 mg/mL). The reaction mixture was orbitally shaken (300 rpm) at room temperature for 18h. The conversion of L-lysine into 3-hydroxy-L-lysine (94%) was determined by HPLC after derivatization with Fmoc-Cl according to protocol A.

Question: Which “potential conversions of the substrates, ENZ1 SEQ ID N°1” value (ENZ1 SEQ ID N°1) does the source give for `NCCCC[C@H](N)C(=O)O` [L-lysine] here?
Answer: positive

Question: What about the “potential conversions of the substrates, ENZ4 SEQ ID NO:4” value (ENZ4 SEQ ID NO:4) of the same molecule?
Answer: negative

Question: And the “hydroxylation capability of ENZ5” value (ENZ5 (SEQ ID NO:9))?
Answer: capable of hydroxylating

Question: What about the “hydroxylation capability of ENZ6” value (ENZ6 (SEQ ID NO:10)) of the same molecule?
Answer: capable of hydroxylating

Question: And the “conversion of L-lysine into 3-hydroxy-L-lysine” value (ENZ1 (SEQ ID NO:1))?
Answer: 94%
